This is an account of results in patent US20220009918A1, “Chemical Compounds” (GlaxoSmithKline Intellectual Property Development Limited, priority 2018, published 2022).

The target of one assay is T1, human H-PGDS (Homo sapiens, UniProt O60760).
T1 construct: Full length human H-PGDS cDNA (Invitrogen Ultimate ORF IOH13026) was amplified by PCR; 6-His (N); TEV protease cleavage site (N); made in house; host or cells: E. coli BL21 (DE3*) for H-PGDS; Sf9 insect cells (baculovirus) for COX-2
T1 sequence (O60760 whole entry): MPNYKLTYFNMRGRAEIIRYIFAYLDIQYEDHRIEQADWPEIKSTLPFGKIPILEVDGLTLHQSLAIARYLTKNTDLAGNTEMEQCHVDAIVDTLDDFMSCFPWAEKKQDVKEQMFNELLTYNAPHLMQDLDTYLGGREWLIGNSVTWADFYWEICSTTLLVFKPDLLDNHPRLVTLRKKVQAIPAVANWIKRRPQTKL
The experiment in a line: H-PGDS RapidFire high throughput mass spectrometry assay. The assay is classed as biochemical. The conditions noted are these: inhibition of conversion of PGH2 to PGD2 by H-PGDS. Here is the method: H-PGDS RapidFire™ High Throughput Mass Spectrometry Assay
The H-PGDS RapidFire™ mass spectrometric assay monitors conversion of prostaglandin H2 (PGH2) to prostaglandin D2 (PGD2) by haematopoietic prostaglandin D synthase (H-PGDS). In the assay format described here, the substrate (PGH2) is formed in situ by the action of cyclooxygenase-2 on arachidonic acid. This first step is set up to be fast, and generates a burst of PGH2 at ˜10 μM. The PGH2 is then further converted to PGD2 by the H-PGDS enzyme. […] Plates are then read on the RapidFire™ high throughput solid phase extraction system (Agilent) which incorporates a solid phase extraction step coupled to a triple quadrupole mass spectrometer (AB SCIEX). Relative levels of PGD2 and PGF2α, which acts as a surrogate for substrate, are measured and a percent conversion calculated. Inhibitors are characterised as compounds which lower the conversion of PGH2 to PGD2.
Full length human H-PGDS cDNA (Invitrogen Ultimate ORF IOH13026) was amplified by PCR with the addition of a 5′ 6-His tag and TEV protease cleavage site. The PCR product was digested with NdeI and XhoI and ligated into pET22b+ (Merck Novagen®). Expression was carried out in E. coli strain BL21 (DE3*) using auto-induction Overnight Express™ Instant TB medium (Merck Novagen®) supplemented with 1% glycerol. The culture was first grown at 37° C. and the temperature was reduced to 25° C. when OD600 reached 2.0. Cells were harvested by centrifugation after a further 18 hours. 10 g of E. coli cell pellet was suspended to a total volume of 80 mL in lysis buffer (20 mM Tris-Cl pH 7.5, 300 mM NaCl, 20 mM imidazole, 5 mM p-mercaptoethanol, 10% glycerol). 1 mg/mL protease inhibitors (Protease Inhibitor Cocktail Set III, Merck Calbiochem®) and 1 mg/mL lysozyme were added to the cell suspension. The suspension was then sonicated for 5 min (UltraSonic Processor VCX 750, Cole-Parmer Instrument Co.) with a micro probe (50% amplitude, 10 sec on/off) and then centrifuged at 100,000 g for 90 minutes (at 4° C.). The supernatant was loaded onto a Ni-NTA HiTrap column (5 mL, GE Healthcare, pre-equilibrated in lysis buffer). The column was washed with 10 column volumes of lysis buffer and eluted with lysis buffer containing 500 mM imidazole. The pooled protein peak fractions were concentrated using a 10 kDa centrifugal filter at 3500 g and 4° C. (Amicon Ultra-15 centrifugal filter unit with Ultracel-10 membrane from Millipore). Further purification of the concentrated protein was carried out using gel filtration chromatography on a HiLoad 26/600 Superdex 75 preparative grade column (GE Healthcare Life Sciences) using 50 mM Tris pH 7.5, 50 mM NaCl, 1 mM dithiothreitol, 1 mM MgCl2. Fractions containing the protein were pooled, concentrated as described above, and stored at −80° C.
The full length human COX-2 gene (accession number L15326) was amplified by PCR to generate an EcoRI—HindIII fragment containing an in-frame FLAG tag. This was subcloned into pFastBac 1 (Invitrogen). The COX-2 FLAG plasmid was recombined into the baculovirus genome according to the BAC-to-BAC protocol described by Invitrogen. Transfection into Spodoptera frugiperda (Sf9) insect cells was performed using Cellfectin (Invitrogen), according to the manufacturer's protocol. Super Sf9 cells were cultured in EX420 media (SAFC Biosciences) to a density of approximately 1.5×10^6 cells/mL within a wave bioreactor. Recombinant virus was added at a Multiplicity of Infection (MOI) of 5 and the culture was allowed to continue for 3 days. Cells were harvested using a continuous feed centrifuge run at 2500 g at a rate of approximately 2 L/min with cooling. The resultant cell slurry was re-centrifuged in pots (2500 g, 20 min, 4° C.) and the cell paste was stored at −80° C. […]
Regarding `C[C@H]1CNC(=O)[C@H]1NC(=O)c1cnc(-c2cc(F)cc(Cl)c2)s1` (racemic) [Example 74, Racemic cis-2-(3-Chloro-5-fluorophenyl)-N-(4-methyl-2-oxopyrrolidin-3-yl)thiazole-5-carboxamide], the “Potency Range (mean pIC50)” value is recorded as “*** (*** = pIC50 7.00-7.99)”.

The same assay, now with this note: inhibition of conversion of PGH2 to PGD2 by H-PGDS; mean pIC50; read-out: Potency Range (mean pIC50) (converted).
`O=C(NC1CCNC1=O)c1cnc(-c2cccc(Cl)c2)s1` (racemic) [Example 2, Racemic 2-(3-Chlorophenyl)-N-(2-oxopyrrolidin-3-yl)thiazole-5-carboxamide]: the IC50 was 10.2 to 100 nM. On the same count and under the same terms, for `CC1(C)CC(NC(=O)c2cnc(-c3cc(F)cc(Cl)c3)s2)C(=O)N1` (racemic) [Example 14, Racemic 2-(3-Chloro-5-fluorophenyl)-N-(5,5-dimethyl-2-oxopyrrolidin-3-yl)thiazole-5-carboxamide] the value was 10.2 to 100 nM; for `CC1(C)CC(NC(=O)c2cnc(-c3cc(F)cc(C(F)F)c3)s2)C(=O)N1` (racemic) [Example 18, Racemic 2-(3-(Difluoromethyl)-5-fluorophenyl)-N-(5,5-dimethyl-2-oxopyrrolidin-3-yl)thiazole-5-carboxamide], 10.2 to 100 nM; for `O=C(NC1CC2(CC2)NC1=O)c1cnc(-c2cc(F)cc(Cl)c2)s1` (racemic) [Example 20, Racemic 2-(3-Chloro-5-fluorophenyl)-N-(5-oxo-4-azaspiro[2.4]heptan-6-Yl)thiazole-5-carboxamide], 10.2 to 100 nM. Still for that read-out and setting: with `CCC1(CC)CNC(=O)C1NC(=O)c1cnc(-c2cc(F)cc(Cl)c2)s1` (racemic) [Example 23, Racemic 2-(3-Chloro-5-fluorophenyl)-N-(4,4-diethyl-2-oxopyrrolidin-3-yl)thiazole-5-carboxamide] the figure was 102 to 1000 nM; with `O=C(NC1CC2(CCC2)NC1=O)c1cnc(-c2cc(F)cc(Cl)c2)s1` (racemic) [Example 27, Racemic 2-(3-Chloro-5-fluorophenyl)-N-(6-oxo-5-azaspiro[3.4]octan-7-v)thiazole-5-carboxamide], 10.2 to 100 nM; with `C[C@H]1[C@H](C)NC(=O)[C@@H]1NC(=O)c1cnc(-c2cc(F)cc(Cl)c2)s1` (racemic) [Example 34, Racemic 2-(3-Chloro-5-fluorophenyl)-N-((3R,4S,5S)-4,5-dimethyl-2-oxopyrrolidin-3-yl)thiazole-5-carboxamide; and 2-(3-Chloro-5-fluorophenyl)-N-((3S,4R,5R)-4,5-dimethyl-2-oxopyrrolidin-3-yl)thiazole-5-carboxamide], 10.2 to 100 nM.

With `O=C(N[C@H]1C(=O)N[C@@H]2CCC[C@@H]21)c1cnc(-c2cc(F)cc(Cl)c2)s1` (racemic) [Example 49, Racemic 2-(3-Chloro-5-fluorophenyl)-N-((3R,3aS,6aR)-2-oxooctahydrocyclopenta[b]pyrrol-3-yl)thiazole-5-carboxamide; and 2-(3-Chloro-5-fluorophenyl)-N-((3S,3aR,6aS)-2-oxooctahydrocyclopenta[b]pyrrol-3-yl)thiazole-5-carboxamide], the IC50 was 1.02 to 10 nM. In the case of `O=C(N[C@@H]1C(=O)N[C@H]2COC[C@H]21)c1cnc(-c2cc(F)cc(Cl)c2)s1` (racemic) [Example 52, Racemic 2-(3-Chloro-5-fluorophenyl)-N-((3S,3aR,6aR)-2-oxohexahydro-1H-furo[3,4-b]pyrrol-3-yl)thiazole-5-carboxamide; and 2-(3-Chloro-5-fluorophenyl)-N-((3R,3aS,6aS)-2-oxohexahydro-1H-furo[3,4-b]pyrrol-3-yl)thiazole-5-carboxamide], the IC50 is 10.2 to 100 nM. Take `O=C(NC1CC2(COC2)NC1=O)c1cnc(-c2cc(F)cc(Cl)c2)s1` (racemic) [Example 55, Racemic 2-(3-Chloro-5-fluorophenyl)-N-(6-oxo-2-oxa-5-azaspiro[3.4]octan-7-yl)thiazole-5-carboxamide]: the IC50 is 1.02 to 10 nM. As to `O=C(N[C@H]1C(=O)N[C@H]2CCC[C@H]21)c1cnc(-c2cc(F)cc(Cl)c2)s1` (racemic) [Example 58, Racemic 2-(3-Chloro-5-fluorophenyl)-N-((3R,3aR,6aS)-2-oxooctahydrocyclopenta[b]pyrrol-3-yl)thiazole-5-carboxamide; and 2-(3-Chloro-5-fluorophenyl)-N-((3S,3aS,6aR)-2-oxooctahydrocyclopenta[b]pyrrol-3-yl)thiazole-5-carboxamide], the IC50 is 10.2 to 100 nM.

As for `CN1CCC(NC(=O)c2cnc(-c3cc(F)cc(Cl)c3)s2)C1=O` (racemic) [Example 63, Racemic 2-(3-Chloro-5-fluorophenyl)-N-(1-methyl-2-oxopyrrolidin-3-yl)thiazole-5-carboxamide], the IC50 is 10.2 to 100 nM. Take `CN(C(=O)c1cnc(-c2cc(F)cc(Cl)c2)s1)C1CCNC1=O` (racemic) [Example 65, Racemic 2-(3-Chloro-5-fluorophenyl)-N-methyl-N-(2-oxopyrrolidin-3-yl)thiazole-5-carboxamide]: the IC50 is 1020 to 10000 nM. `COc1ccc(CN2CCC(C)(NC(=O)c3cnc(-c4cc(F)cc(Cl)c4)s3)C2=O)cc1` (racemic) [Example 70, Racemic 2-(3-Chloro-5-fluorophenyl)-N-(1-(4-methoxybenzyl)-3-methyl-2-oxopyrrolidin-3-yl)thiazole-5-carboxamide]: the IC50 is 102 to 1000 nM. Regarding `CC1(NC(=O)c2cnc(-c3cc(F)cc(Cl)c3)s2)CCNC1=O` (racemic) [Example 71, Racemic 2-(3-Chloro-5-fluorophenyl)-N-(3-methyl-2-oxopyrrolidin-3-yl)thiazole-5-carboxamide], the IC50 was 102 to 1000 nM. Same read-out and setting: for `CC1(C)CC(NC(=O)c2cnc(-c3cc(F)cc(Cl)c3)[se]2)C(=O)N1` (racemic) [Example 82, Racemic 2-(3-Chloro-5-fluorophenyl)-N-(5,5-dimethyl-2-oxopyrrolidin-3-yl)-1,3-selenazole-5-carboxamide] the value was 10.2 to 100 nM; for `CC1(C)CC(NC(=O)c2cnc(-c3cc(F)cc(Cl)c3)s2)C(=S)N1` (racemic) [Example 83, Racemic 2-(3-Chloro-5-fluorophenyl)-N-(5,5-dimethyl-2-thioxopyrrolidin-3-yl)thiazole-5-carboxamide], 1.02 to 10 nM; for `CC1(C)C[C@@H](NC(=O)c2cnc(-c3cc(F)cc(Cl)c3)s2)C(=O)N1` (single isomer, unassigned) [Example 15], 102 to 1000 nM. On the same count and under the same terms, for `O=C(N[C@H]1CCNC1=O)c1cnc(-c2cccc3ccoc23)s1` [Example 1, (S)-2-(Benzofuran-7-yl)-N-(2-oxopyrrolidin-3-yl)thiazole-5-carboxamide] the value was 10.2 to 100 nM; for `O=C(N[C@H]1CCNC1=O)c1cnc(-c2cccc(Cl)c2)s1` [Example 3, (S)-2-(3-Chlorophenyl)-N-(2-oxopyrrolidin-3-yl)thiazole-5-carboxamide], 10.2 to 100 nM.

On to `O=C(N[C@H]1CCNC1=O)c1cnc(-c2cccc(C(F)(F)F)c2)s1` [Example 4, (S)-N-(2-Oxopyrrolidin-3-v)-2-(3-(trifluoromethyl)phenyl)thiazole-5-carboxamide], for which the IC50 is 10.2 to 100 nM. For the molecule `Cc1cccc(-c2ncc(C(=O)N[C@H]3CCNC3=O)s2)c1` [Example 5, (S)-N-(2-Oxopyrrolidin-3-yl)-2-(m-tolyl)thiazole-5-carboxamide], the IC50 was 1.02 to 10 nM.
